Changes are numbered by the printed parent chain. Like-named read-outs stand apart in the source and are kept apart here.
Key:
[1] = molecular target: T1, wild-type Choristoneura fumiferana EcR (CfEcR-DEF) (Choristoneura fumiferana, UniProt O77255); assay: Two-hybrid gene switch assay, wild-type CfEcR-DEF (GAL4-EcR / VP16-RXR-USP chimera, luciferase) in NIH3T3 cells; settings: for Emax: NIH3T3, 48 h, read-out: rel max FI (diacylhydrazine), CF
T1 sequence (O77255 219-541): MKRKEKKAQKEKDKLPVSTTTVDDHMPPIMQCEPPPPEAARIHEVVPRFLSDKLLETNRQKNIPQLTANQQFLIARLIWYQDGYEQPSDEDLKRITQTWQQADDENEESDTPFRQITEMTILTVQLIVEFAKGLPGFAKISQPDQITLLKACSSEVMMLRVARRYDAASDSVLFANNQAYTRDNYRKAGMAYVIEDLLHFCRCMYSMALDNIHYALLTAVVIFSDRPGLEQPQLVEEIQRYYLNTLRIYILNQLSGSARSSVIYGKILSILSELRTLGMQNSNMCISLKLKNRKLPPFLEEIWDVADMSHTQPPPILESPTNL
T1 sequence (P28702 299-449 partner): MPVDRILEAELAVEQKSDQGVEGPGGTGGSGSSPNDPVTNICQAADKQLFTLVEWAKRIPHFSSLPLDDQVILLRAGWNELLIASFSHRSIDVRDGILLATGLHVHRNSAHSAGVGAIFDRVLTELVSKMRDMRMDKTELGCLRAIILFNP

[2] = molecular target: wild-type Drosophila melanogaster EcR (DmEcR; GAL4-EcR DEF with VP16-RXR-USP chimera) (Drosophila melanogaster, UniProt P34021); assay: Two-hybrid gene switch assay, luciferase reporter, wild-type DmEcR, mouse NIH3T3 cells; assay type: cell-based
wild-type Drosophila melanogaster EcR (DmEcR; GAL4-EcR DEF with VP16-RXR-USP chimera), sequence (P34021 with tags, fused parts or gaps limits assumed): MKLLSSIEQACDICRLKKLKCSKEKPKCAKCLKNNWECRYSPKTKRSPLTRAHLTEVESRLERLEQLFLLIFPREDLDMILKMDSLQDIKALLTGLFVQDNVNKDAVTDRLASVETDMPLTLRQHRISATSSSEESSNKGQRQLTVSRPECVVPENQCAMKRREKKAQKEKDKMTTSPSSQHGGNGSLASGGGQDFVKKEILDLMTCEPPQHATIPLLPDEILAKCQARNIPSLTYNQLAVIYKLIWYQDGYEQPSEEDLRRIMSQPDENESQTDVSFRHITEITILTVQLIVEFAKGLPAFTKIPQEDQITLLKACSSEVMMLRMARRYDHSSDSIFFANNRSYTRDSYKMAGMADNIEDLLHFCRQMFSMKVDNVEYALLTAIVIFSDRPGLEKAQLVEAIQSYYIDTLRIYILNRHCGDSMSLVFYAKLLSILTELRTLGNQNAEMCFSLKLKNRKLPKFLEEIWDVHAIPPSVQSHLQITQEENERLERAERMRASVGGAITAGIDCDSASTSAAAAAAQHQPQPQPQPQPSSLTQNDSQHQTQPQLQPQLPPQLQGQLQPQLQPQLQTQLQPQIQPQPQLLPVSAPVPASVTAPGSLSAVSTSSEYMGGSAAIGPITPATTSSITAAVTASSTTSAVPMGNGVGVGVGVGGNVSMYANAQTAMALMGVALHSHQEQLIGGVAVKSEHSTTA

[3] = molecular target: T2, wild-type CfEcR (GAL4-CfEcR-DEF with VP16-RXR-USP chimera) (Choristoneura fumiferana, UniProt O77255); assay: Two-hybrid gene switch assay, luciferase reporter, wild-type CfEcR, mouse NIH3T3 cells
T2 sequence (O77255 219-541): T1 sequence (O77255 219-541) with E230A
T2 sequence (P28702 1-533 partner): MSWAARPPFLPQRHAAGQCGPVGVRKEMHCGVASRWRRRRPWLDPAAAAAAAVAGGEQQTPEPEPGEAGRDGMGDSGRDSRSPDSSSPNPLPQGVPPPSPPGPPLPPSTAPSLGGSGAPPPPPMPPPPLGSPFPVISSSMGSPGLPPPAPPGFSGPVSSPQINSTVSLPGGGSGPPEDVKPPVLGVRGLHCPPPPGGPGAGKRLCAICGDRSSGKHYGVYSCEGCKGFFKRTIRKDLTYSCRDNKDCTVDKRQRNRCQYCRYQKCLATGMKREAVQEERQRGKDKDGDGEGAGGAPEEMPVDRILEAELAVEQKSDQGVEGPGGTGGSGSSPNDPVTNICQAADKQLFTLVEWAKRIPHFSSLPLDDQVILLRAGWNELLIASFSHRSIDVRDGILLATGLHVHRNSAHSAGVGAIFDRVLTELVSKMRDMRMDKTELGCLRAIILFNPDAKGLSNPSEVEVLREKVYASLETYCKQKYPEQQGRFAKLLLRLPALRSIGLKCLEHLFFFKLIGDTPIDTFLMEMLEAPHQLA

[4] = molecular target: wild-type Aedes aegypti EcR (AaEcR; GAL4-EcR DEF with VP16-RXR-USP chimera) (Aedes aegypti, UniProt P49880); assay: Two-hybrid gene switch assay, luciferase reporter, wild-type AaEcR, mouse NIH3T3 cells; assay type: cell-based
wild-type Aedes aegypti EcR (AaEcR; GAL4-EcR DEF with VP16-RXR-USP chimera), sequence (P49880 with tags, fused parts or gaps limits assumed, change not shown): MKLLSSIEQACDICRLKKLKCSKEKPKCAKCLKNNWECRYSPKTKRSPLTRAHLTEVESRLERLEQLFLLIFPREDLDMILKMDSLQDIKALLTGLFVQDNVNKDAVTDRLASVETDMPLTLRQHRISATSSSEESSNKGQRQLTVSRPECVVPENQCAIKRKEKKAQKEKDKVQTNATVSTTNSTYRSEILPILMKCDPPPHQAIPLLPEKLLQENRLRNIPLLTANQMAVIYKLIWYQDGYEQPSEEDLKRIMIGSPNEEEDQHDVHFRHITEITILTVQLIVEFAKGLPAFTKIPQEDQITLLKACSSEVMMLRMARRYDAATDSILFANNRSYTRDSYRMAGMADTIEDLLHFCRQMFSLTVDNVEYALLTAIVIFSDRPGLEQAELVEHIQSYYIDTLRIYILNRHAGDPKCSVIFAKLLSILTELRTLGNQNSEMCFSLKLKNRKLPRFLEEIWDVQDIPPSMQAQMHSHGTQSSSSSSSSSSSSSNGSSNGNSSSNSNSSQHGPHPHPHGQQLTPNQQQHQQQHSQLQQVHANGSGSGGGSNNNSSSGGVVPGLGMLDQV

[5] = molecular target: T3, BaEcR (GAL4-EcR DEF with VP16-RXR-USP chimera) (Bemisia tabaci, UniProt A0A6M3RDR8); assay: Two-hybrid gene switch assay, luciferase reporter, BaEcR, mouse NIH3T3 cells; settings: EC50, FIG. 14A/14B, GAL4-EcR(DEF) with VP16-RXR-USP chimera
T3 sequence (A0A6M3RDR8 115-530): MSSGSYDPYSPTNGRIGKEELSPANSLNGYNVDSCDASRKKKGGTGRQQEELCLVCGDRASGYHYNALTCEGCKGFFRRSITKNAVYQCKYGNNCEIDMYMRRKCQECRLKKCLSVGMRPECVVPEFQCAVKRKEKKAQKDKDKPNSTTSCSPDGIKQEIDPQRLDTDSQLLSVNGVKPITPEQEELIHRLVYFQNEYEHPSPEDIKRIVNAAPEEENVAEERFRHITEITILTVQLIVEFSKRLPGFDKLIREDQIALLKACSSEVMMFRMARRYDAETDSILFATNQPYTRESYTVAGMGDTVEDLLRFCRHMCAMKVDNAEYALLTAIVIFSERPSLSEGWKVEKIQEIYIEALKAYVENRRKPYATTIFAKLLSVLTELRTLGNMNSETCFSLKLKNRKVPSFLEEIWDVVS
T3 sequence (P28702 1-533 partner): T2 sequence (P28702 1-533 partner)

[6] = molecular target: T4, TmEcR (GAL4-EcR DEF with VP16-RXR partner) (Tenebrio molitor, UniProt O02035); assay: Two-hybrid gene switch assay, luciferase reporter, TmEcR, mouse NIH3T3 cells
T4 sequence (O02035 194-491): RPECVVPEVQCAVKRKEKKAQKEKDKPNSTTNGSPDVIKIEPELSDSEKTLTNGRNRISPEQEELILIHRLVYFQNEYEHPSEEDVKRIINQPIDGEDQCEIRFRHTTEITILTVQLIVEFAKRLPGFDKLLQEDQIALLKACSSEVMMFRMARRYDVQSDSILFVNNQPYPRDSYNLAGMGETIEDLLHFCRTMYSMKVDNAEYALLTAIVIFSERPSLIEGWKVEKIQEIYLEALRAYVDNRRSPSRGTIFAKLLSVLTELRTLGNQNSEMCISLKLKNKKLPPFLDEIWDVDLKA
T4 sequence (P28704 1-520 partner): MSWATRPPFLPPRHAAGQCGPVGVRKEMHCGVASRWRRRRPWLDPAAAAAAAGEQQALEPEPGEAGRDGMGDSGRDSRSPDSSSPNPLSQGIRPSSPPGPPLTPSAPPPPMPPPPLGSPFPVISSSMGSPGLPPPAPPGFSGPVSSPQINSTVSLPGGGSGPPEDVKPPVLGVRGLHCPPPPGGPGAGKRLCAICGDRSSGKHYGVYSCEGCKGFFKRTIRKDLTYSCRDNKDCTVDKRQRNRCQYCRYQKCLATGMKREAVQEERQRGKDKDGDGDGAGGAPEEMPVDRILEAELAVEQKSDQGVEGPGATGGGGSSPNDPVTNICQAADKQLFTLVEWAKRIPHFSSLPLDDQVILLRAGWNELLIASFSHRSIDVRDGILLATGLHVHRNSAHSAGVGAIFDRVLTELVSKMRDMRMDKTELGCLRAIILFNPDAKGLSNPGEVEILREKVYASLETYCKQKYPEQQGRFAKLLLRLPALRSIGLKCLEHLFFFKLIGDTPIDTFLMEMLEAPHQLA

[7] = molecular target: T5, MsEcR (GAL4-EcR DEF with VP16-RXR-USP chimera) (Manduca sexta, UniProt P49883); assay: Two-hybrid gene switch assay, luciferase reporter, MsEcR, mouse NIH3T3 cells; settings: EC50, FIG. 15, GAL4-EcR (DEF) / VP16-RXR-USP chimera
T5 sequence (P49883 1-556): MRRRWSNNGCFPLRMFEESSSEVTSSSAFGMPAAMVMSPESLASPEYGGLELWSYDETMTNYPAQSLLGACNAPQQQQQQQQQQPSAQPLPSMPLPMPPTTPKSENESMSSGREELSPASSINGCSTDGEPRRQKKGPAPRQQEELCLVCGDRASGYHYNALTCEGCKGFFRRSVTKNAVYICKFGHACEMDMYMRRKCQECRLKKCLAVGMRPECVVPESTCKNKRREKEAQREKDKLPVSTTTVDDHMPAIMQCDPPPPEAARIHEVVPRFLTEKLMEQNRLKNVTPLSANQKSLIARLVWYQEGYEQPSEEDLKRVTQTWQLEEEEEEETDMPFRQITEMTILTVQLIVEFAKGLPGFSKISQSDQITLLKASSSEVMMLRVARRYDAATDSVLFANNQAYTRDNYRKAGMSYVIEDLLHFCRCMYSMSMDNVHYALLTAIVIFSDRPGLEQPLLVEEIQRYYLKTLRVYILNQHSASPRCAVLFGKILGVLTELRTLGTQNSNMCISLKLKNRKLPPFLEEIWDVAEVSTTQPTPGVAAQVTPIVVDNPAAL
T5 sequence (P28702 1-533 partner): T2 sequence (P28702 1-533 partner)

CCO[C@H](CCC(C)(C)O)[C@](C)(O)C1CC[C@@]2(O)C3=CC(=O)C4C[C@@H](O)[C@@H](O)CC4(C)C3CCC12C (stereo partly shown) [20E-22-ethyl ether]
Emax [1]: 77%

CCCO[C@H](CCC(C)(C)O)[C@](C)(O)C1CC[C@@]2(O)C3=CC(=O)C4C[C@@H](O)[C@@H](O)CC4(C)C3CCC12C (stereo partly shown) [20E-22-n-propyl ether]
EC50 [1]: > 33 µM | Emax [1]: 0.5%

COC(C)(C)CCC(O)C(C)(O)C1CCC2(O)C3=CC(=O)C4CC(O)C(O)CC4(C)C3CCC12C (stereo not shown) [20E-25-methyl ether]
EC50 [1]: > 33 µM | Emax [1]: 0.13%

C=CCO[C@H](CCC(C)(C)O)[C@](C)(O)C1CC[C@@]2(O)C3=CC(=O)C4C[C@@H](O)[C@@H](O)CC4(C)C3CCC12C (stereo partly shown) [Compound 7]
EC50 ([2]; EC50, FIG. 8): ~5 µM | EC50 [3]: > 33 µM

CCCCO[C@H](CCC(C)(C)O)[C@](C)(O)C1CC[C@@]2(O)C3=CC(=O)C4C[C@@H](O)[C@@H](O)CC4(C)C3CCC12C (stereo partly shown) [Compound 8]
EC50 ([2]; EC50, FIG. 8): 14.6 µM | EC50 ([4]; FIG. 8, read-out: EC50): 2.72 µM | EC50 [3]: > 33 µM

CC(C)(O)CC[C@@H](OCc1ccccc1)[C@](C)(O)C1CC[C@@]2(O)C3=CC(=O)C4C[C@@H](O)[C@@H](O)CC4(C)C3CCC12C (stereo partly shown) [Compound 9]
EC50 [3]: > 33 µM

COC(C)(C)CC[C@@H](O)[C@](C)(O)[C@H]1CC[C@@]2(O)C3=CC(=O)[C@@H]4C[C@@H](O)[C@@H](O)C[C@]4(C)[C@H]3CC[C@]12C [Compound 10]
EC50 ([2]; EC50, FIG. 8): 5.45 µM | EC50 ([4]; EC50, FIG. 8): ~0.3 µM

CO[C@H](CCC(C)(C)OC)[C@](C)(O)[C@H]1CC[C@@]2(O)C3=CC(=O)[C@@H]4C[C@@H](O)[C@@H](O)C[C@]4(C)[C@H]3CC[C@]12C [Compound 14]
EC50 ([2]; EC50, FIG. 8): 1.58 µM | EC50 [3]: > 33 µM

CO[C@H]1CC2(C)C(C[C@H]1OC)C(=O)C=C1C2CCC2(C)C([C@@](C)(O)[C@@H](CCC(C)(C)O)OC)CC[C@@]12OC (stereo partly shown) [Compound 15]
EC50 [3]: > 33 µM

CO[C@@]12CC[C@H]([C@@](C)(O)[C@H](O)CCC(C)C)[C@@]1(C)CC[C@H]1C2=CC(=O)[C@@H]2C[C@@H](O)[C@@H](O)C[C@@]21C [Compound 17]
EC50 [3]: ~20 µM

CO[C@H]1C[C@@]2(C)[C@@H](C[C@H]1O)C(=O)C=C1[C@@H]2CC[C@]2(C)[C@@H]([C@@](C)(O)[C@@H](CCC(C)C)OC)CC[C@@]12O [Compound 19]
EC50 [3]: 27.8 µM

CO[C@H](CCC(C)C)[C@](C)(O)[C@H]1CC[C@@]2(OC)C3=CC(=O)[C@@H]4C[C@@H](O)[C@@H](O)C[C@]4(C)[C@H]3CC[C@]12C [Compound 21]
EC50 [3]: > 33 µM

CO[C@H](CCC(C)C)[C@](C)(O)C1CC[C@@]2(O)C3=CC(=O)C4C[C@@H](O)[C@@H](O)CC4(C)C3=CCC12C (stereo partly shown) [Compound 22]
EC50 [3]: 13.7 µM

CC(C(O)CCC(C)(C)O)C1CCC2(O)C3=CC(=O)C4CC(O)C(O)CC4(C)C3CCC12C (stereo not shown) [Compound 24]
EC50 [3]: > 33 µM

CC(C)(O)CC[C@@H](O)[C@](C)(O)[C@H]1CC[C@@]2(O)C3=CC(=O)[C@@H]4C[C@@H](O)[C@@H](O)C[C@]4(C)[C@H]3CC[C@]12C [Compound 25]
EC50 ([4]; FIG. 8, read-out: EC50): 0.93 µM

CC(C)CCC(O)C(C)(O)C1CCC2(O)C3=CC(=O)C4(O)CC(O)C(O)CC4(C)C3C(O)CC12C (stereo not shown) [Compound 28]
EC50 ([2]; EC50, FIG. 8): 0.112 µM

CC(C)CC[C@@H](O)[C@](C)(O)[C@H]1CC[C@@]2(O)C3=CC(=O)[C@@H]4C[C@@H](O)[C@@H](O)C[C@]4(C)[C@H]3CC[C@]12C [PoA, ponasterone A, reference compound]
EC50 [5]: 0.031 µM | EC50 ([2]; EC50, FIG. 4C): 0.113 µM | EC50 ([2]; EC50, FIG. 16, GAL4-EcR (DEF) / VP16-RXR-USP chimera): 0.84 µM | EC50 ([6]; EC50, FIG. 14A/14B, GAL4-EcR(DEF)): 0.044 µM | EC50 ([6]; EC50, FIG. 16, GAL4-EcR (DEF)): 0.07 µM | EC50 [7]: 0.17 µM | EC50 [3]: 8.42 µM

CC(C)(O)CC[C@@H](O)[C@](C)(O)[C@H]1CC[C@@]2(O)C3=CC(=O)[C@]4(O)C[C@@H](O)[C@@H](O)C[C@]4(C)[C@H]3CC[C@]12C [polypodine B, reference compound]
EC50 ([1]; wt-CfEcR gene switch, NIH3T3, Example One): ~12 µM
